Measurements as given in patent US8754233B2, “Pyrazolylbenzothiazole derivatives and their use as therapeutic agents” (Dermira (Canada), Inc., priority 2002, dated 2014).

Columns and labels:
ILK = ILK (Homo sapiens (Human), UniProt Q13418); assay: Inhibition of ILK in vitro enzyme assay; conditions: read-out: IC50 avg. value; recombinant ILK, [γ-32P]-ATP, 15 minutes at ambient temperature
Source text: The target ILK is a full-length recombinant protein expressed in Hi5 insect cells by baculovirus infection. Recombinant ILK protein was expressed using cultured insect cells and a baculovirus expression system. […] This ILK transfer construct was then co-transfected with BaculoGold™ DNA (Pharmingen) into Sf9 insect cells (Invitrogen) and a high titre preparation of GST-ILK recombinant baculovirus was produced by amplification in Sf9 cells. Liter scale expression of GST-ILK recombinant protein was done in 1000 mL spinner flasks (Bellco) by infection of Hi5 insect cells (Invitrogen) grown in Ex-Cell™ 400 serum free media (JRH Biosciences) at a multiplicity of infection of approximately 5. […]
From each assay mixture, 10 μL of assay mixture was spotted onto Millipore Multiscreen-PH™ opaque plates and washed twice for 10 minutes in 1% phosphoric acid. The plates were dried at 40° C. for 30 minutes, then substrate-phosphate complexes were quantitated by scintillation counting. […]
Inhibition of ILK by the test compounds is measured by scintillation counting of the incorporation of radioactive phosphate onto a specific substrate which is immobilized onto a filter paper at the end of the assay. […]
The “baseline activity” is the amount of radioactivity incorporated in the absence of a target inhibitor.

PC3 Cells = assay: Tumor cell migration assay; assay type: cell-based; conditions: Homo sapiens, PC-3, 25 μM compound
Protocol: The invasion test system (BD Bioscience's BioCoat™ FluoroBlok™ Invasion System including BD BioCoat™ Matrigel™ Invasion Chambers with the fluorescence blocking membrane FluoroBlok™ 24-Multiwell Insert System™) is removed from the package from −20° C. storage and allowed to warm to ambient temperature. PBS is added to the interior of the inserts and they are allowed to rehydrate for 2 hours at 37° C. The medium is then removed and 450 μL cell suspensions of tumor cells (grown to 50-70% confluence, trypsinized, and resuspended in medium without serum at 1×10^6/mL) is added to the top chamber. Test compounds are added to the top chamber at 10× the desired final concentration in 50 μL volumes. DMSO acts as the control. […]
Data is expressed as fluorescence units (FU) from the sum of middle 25 areas per 24-well or as percentage of invasion inhibition by following formula: % of invasion inhibition=100−FU of compound treated cell invasion/FU of DMSO treated cell invasion*100.
Tumor cell migration assay was conducted in the similar way as described in Example 16 except that the plates used were constructed with only a porous membrane dividing a top and bottom chamber without the additional thin Matrigel™ layer on top of the membrane (BD Fluoroblock™ plates). The percent inhibition of migration was determined in the same way as illustrated in Example 16.

HUVEC = HUVEC on Matrigel, VEGF 1 ng/mL, 5 hours
Protocol: Angiogenesis, the formation of new blood vessels from pre-existing endothelium, is a critical process involved in numerous physiological and pathological conditions. Disruption of this tightly regulated process has been implicated in both chronic inflammation and solid tumour growth. The Matrigel™ morphogenesis assay is an in vitro model used to mimic the process by which endothelial cells form capillaries in vivo. Human umbilical vein endothelial cells (HUVECs) were plated over matrigel, a complex mixture of solubilized basement membrane components, and cultured in serum poor medium with specific growth factors and in the presence of the test compound. […] After 5 hours of incubation in a 5% CO2-humidified atmosphere at 37° C., the three-dimensional organization of the cells (the capillary-like structures) was examined using an inverted photomicroscope. The cells were fixed with crystal violet (0.05% in 20% ethanol) and photographed using a digital camera. Qualitative analysis was accomplished by comparing the pattern, size and integrity of the vessels formed in the test wells with those of the VEGF control wells. Quantitative analysis was performed on the images collected using the Image-Pro Plus software program.

ConA 1° splenocytes = assay: Survival of ConA 1° splenocytes (cytotoxicity by MTS staining); assay type: cell-based, mouse; conditions: Mus musculus, Splenocyte, ConA-stimulated splenocytes
Protocol: The working concentration of ConA was […]. A 20× working concentration of Concanavalin A was […] was prepared using RPMI-5. The test compounds, dimethylsulfoxide (DMSO) negative vehicle control and staurosporine positive control were diluted twenty times using RPMI-5. Ten μL each of DMSO and staurosporine were combined with 180 μl of medium containing splenocytes in the wells, and 10 μl of 50 μg/ml ConA was immediately added. Medium without ConA was added to the control wells. […] The plates were incubated at 37° C. in 5% CO2 in humidified conditions overnight (18-24 hours) for INFγ.
(MTS). The MTS solution was made fresh and under low light. The electron coupling reagent phenazine methosulfate (PMS) was added at the time of the assay. Twenty μL of MTS solution per 100 μl of tissue culture medium was added to each well. The plates were incubated 37° C. for 4 hours for unstimulated and 18-24 ConA stimulated splenocytes. The absorbance was read at 490 nm wavelength. A kit available to do this assay is “CellTiter 96® AQ Kit AQueous Kit (G5421)” by Promega.

macrophages = assay: Survival of macrophages; assay type: cell-based, mouse; conditions: Mus musculus, Macrophage; stimulated primary macrophages
Protocol: Peritoneal exudate macrophages were isolated by peritoneal lavage with ice-cold sterile physiological saline 24 hours after intraperitoneal injection of BALB/c mice with 0.3 ml of sterile zymosan A (1 mg/0.5 mL 0.9% saline). […] 1.5×10^5 cells/well were seeded in 96-well plates and followed by 3 hour incubation at 37° C. with 5% CO2 (macrophages were allowed to attach) cells were stimulated with LPS ([…]/mL) and IFN-γ (100 U/mL) in the absence or presence of the test compounds. All treatments were replicated six times. Cells were incubated for an additional 24 hours, and cell free culture supernatants from each well were collected for NO and cytokine determination. The remaining cells were stained with crystal violet to determine effect of the compound on cell survival.

IL-12 on macrophages = assay: Inhibition of IL-12 release from stimulated macrophages; assay type: cell-based, mouse; conditions: Mus musculus, Macrophage; LPS and IFN-γ stimulated primary macrophages, ELISA
Protocol: Peritoneal exudate macrophages were isolated by peritoneal lavage with ice-cold sterile physiological saline 24 hours after intraperitoneal injection of BALB/c mice with 0.5 mL of sterile Zymosan A (1 mg/0.5 mL 0.9% saline). […] Murine primary macrophage are activated following incubation with LPS in the presence of sub-optimal doses of IFN-γ. Upon activation, macrophages participate actively in the onset of inflammation by releasing bioactive molecules that amplify the initial inflammatory response. […] Briefly, IL-12 levels in the supernatants from stimulated macrophages were determined with PharMingen's OptEIA™ ELISA set developed using an anti-mouse IL-12 antibody pair and mouse rIL-12 standard (PharMingen). Maxisorp™ F16 multiwell strips (Nunc, Roskilde, Denmark) were coated with anti-mouse IL-12 capture Ab (at recommended concentration) in 0.1 M NaHCO3, pH 9.5, 100 μL/well, overnight at 4° C. […] Plates were washed 3× with PBST and duplicate samples (100 μL/well) or standards (100 μL/well) in diluent buffer were incubated for 2 h. Plates were washed five times with PBST and incubated with biotinylated anti-mouse IL-12 and avidin-horseradish peroxidase (HRP) conjugate (at concentrations recommended by the manufacturer) for 1 h. […] Peritoneal exudate macrophages were isolated by peritoneal lavage with ice-cold sterile physiological saline 24 hours after intraperitoneal injection of BALB/c mice with 0.3 ml of sterile zymosan A (1 mg/0.5 mL 0.9% saline). […] All treatments were replicated six times. Cells were incubated for an additional 24 hours, and cell free culture supernatants from each well were collected for NO and cytokine determination. The remaining cells were stained with crystal violet to determine effect of the compound on cell survival.

[1] = tested on: Nitric Oxide On Stimulated Macrophages; assay: Inhibition of nitric oxide on stimulated macrophages; assay type: cell-based; conditions: Mus musculus, Macrophage, 25 μM compound
Protocol: Peritoneal exudate macrophages were isolated by peritoneal lavage with ice-cold sterile physiological saline 24 hours after intraperitoneal injection of BALB/c mice with 0.3 ml of sterile zymosan A (1 mg/0.5 mL 0.9% saline). […] All treatments were replicated six times. Cells were incubated for an additional 24 hours, and cell free culture supernatants from each well were collected for NO and cytokine determination. The remaining cells were stained with crystal violet to determine effect of the compound on cell survival. […] The absorbance at 550 nm was determined. All measurements were performed six times.

Sequence of ILK (Q13418 whole entry): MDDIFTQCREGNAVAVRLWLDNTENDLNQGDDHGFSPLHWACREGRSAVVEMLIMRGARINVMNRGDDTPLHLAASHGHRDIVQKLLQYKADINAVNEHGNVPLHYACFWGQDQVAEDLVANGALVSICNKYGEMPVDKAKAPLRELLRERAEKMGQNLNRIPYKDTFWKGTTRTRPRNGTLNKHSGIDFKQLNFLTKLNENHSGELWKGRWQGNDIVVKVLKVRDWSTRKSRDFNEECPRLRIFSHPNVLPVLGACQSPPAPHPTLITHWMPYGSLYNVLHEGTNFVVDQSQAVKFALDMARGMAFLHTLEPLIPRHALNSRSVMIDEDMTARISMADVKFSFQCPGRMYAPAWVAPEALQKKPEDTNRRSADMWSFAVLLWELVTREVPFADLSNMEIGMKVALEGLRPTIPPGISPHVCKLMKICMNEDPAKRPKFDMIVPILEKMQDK

Oc1ccc(-c2n[nH]cc2-c2nc3ccccc3s2)c(O)c1 [4-(4-Benzothiazol-2-yl-1H-pyrazol-3-yl)-benzene-1,3-diol]
IC50 (ILK): 3.3 µM
inhibition at 25 µM (PC3 Cells): 44.8%

Nc1n[nH]c(N)c1-c1nc2ccccc2s1 [4-Benzothiazol-2-yl-1H-pyrazole-3,5-diamine]
% Inhibition of angiogenesis (HUVEC): 32%

Cc1[nH]nc(N)c1-c1nc2ccccc2s1 [4-Benzothiazol-2-yl-5-methyl-1H-pyrazol-3-ylamine]
% Inhibition of angiogenesis (HUVEC): 64%

CSc1[nH]nc(N)c1-c1nc2ccccc2s1 [4-Benzothiazol-2-yl-5-methylsulfanyl-1H-pyrazol-3-ylamine]
% Inhibition of angiogenesis (HUVEC): 84%

Nc1[nH]nc(-c2ccncc2)c1-c1nc2ccccc2s1 [4-Benzothiazol-2-yl-5-pyridin-4-yl-2H-pyrazol-3-ylamine]
IC50 (ConA 1° splenocytes): > 25 µM
IC50 (macrophages): > 25 µM
IC50 (IL-12 on macrophages): > 25 µM

Nc1n[nH]c(N2CCCC2)c1-c1nc2ccccc2s1 [4-Benzothiazol-2-yl-5-pyrrolidin-1-yl-1H-pyrazol-3-ylamine]
% Inhibition of angiogenesis (HUVEC): 50%

Nc1n[nH]c(Nc2ccc3ncccc3c2)c1-c1nc2ccccc2s1 [4-Benzothiazol-2-yl-N^5-quinolin-6-yl-1H-pyrazole-3,5-diamine]
inhibition at 25 µM [1]: 66.1%
inhibition at 25 µM (PC3 Cells): 81%
